Data published in ChEMBL document CHEMBL3813683, “Design, synthesis and anti-cancer activity evaluation of podophyllotoxin-norcantharidin hybrid drugs” (Bioorg Med Chem Lett, 2016).

Assays:
HeLa = experiment: Cytotoxicity against human HeLa cells after 36 hrs by MTT assay; format: functional, cell-based
[1] = Cytotoxicity against HEK293T cells after 36 hrs by MTT assay; format: cell-based; settings: Homo sapiens, HEK-293T
MCF7 [2] = experiment: Cytotoxicity against human MCF7 cells after 36 hrs by MTT assay; format: functional, cell-based; settings: MCF7, 36 h
A549 = experiment: Cytotoxicity against human A549 cells after 36 hrs by MTT assay; format: functional, cell-based; settings: A549, 36 h
MCF7 [3] = experiment: Cell cycle arrest in human MCF7 cells assessed as accumulation at S phase at 4 uM after 24 hrs by propidium iodide staining-based flow cytometry (reference value: 15.95 to 25.74%); format: functional
MCF7 [4] = experiment: Induction of apoptosis in human MCF7 cells assessed as late apoptotic cells at 4 uM after 24 hrs by Annexin V-FITC/propidium iodide staining-based flow cytometry (reference value: 5.92 to 9.33%); format: functional
MCF7 [5] = experiment: Induction of apoptosis in human MCF7 cells assessed as early apoptotic cells at 1 uM after 24 hrs by Annexin V-FITC/propidium iodide staining-based flow cytometry (reference value: 2.45 to 6.92%); format: functional
MCF7 [6] = experiment: Induction of apoptosis in human MCF7 cells assessed as early apoptotic cells at 4 uM after 24 hrs by Annexin V-FITC/propidium iodide staining-based flow cytometry (reference value: 2.45 to 6.92%); format: functional
MCF7 [7] = experiment: Cell cycle arrest in human MCF7 cells assessed as accumulation at S phase at 8 uM after 24 hrs by propidium iodide staining-based flow cytometry (reference value: 15.95 to 25.74%); format: functional
MCF7 [8] = experiment: Induction of apoptosis in human MCF7 cells assessed as necrotic cells at 4 uM after 24 hrs by Annexin V-FITC/propidium iodide staining-based flow cytometry (reference value: 0.021 to 3.8%); format: functional
MCF7 [9] = experiment: Induction of apoptosis in human MCF7 cells assessed as early apoptotic cells at 2 uM after 24 hrs by Annexin V-FITC/propidium iodide staining-based flow cytometry (reference value: 2.45 to 6.92%); format: functional
MCF7 [10] = experiment: Induction of apoptosis in human MCF7 cells assessed as viable cells at 8 uM after 24 hrs by Annexin V-FITC/propidium iodide staining-based flow cytometry (reference value: 80 to 91.6%); format: functional; settings: MCF7, 24 h, read-out: Activity
MCF7 [11] = experiment: Induction of apoptosis in human MCF7 cells assessed as necrotic cells at 2 uM after 24 hrs by Annexin V-FITC/propidium iodide staining-based flow cytometry (reference value: 0.021 to 3.8%); format: functional
MCF7 [12] = experiment: Induction of apoptosis in human MCF7 cells assessed as late apoptotic cells at 1 uM after 24 hrs by Annexin V-FITC/propidium iodide staining-based flow cytometry (reference value: 5.92 to 9.33%); format: functional
MCF7 [13] = experiment: Induction of apoptosis in human MCF7 cells assessed as late apoptotic cells at 2 uM after 24 hrs by Annexin V-FITC/propidium iodide staining-based flow cytometry (reference value: 5.92 to 9.33%); format: functional
MCF7 [14] = experiment: Induction of apoptosis in human MCF7 cells assessed as viable cells at 2 uM after 24 hrs by Annexin V-FITC/propidium iodide staining-based flow cytometry (reference value: 80 to 91.6%); format: functional; settings: MCF7, 24 h, read-out: Activity
MCF7 [15] = experiment: Induction of apoptosis in human MCF7 cells assessed as viable cells at 1 uM after 24 hrs by Annexin V-FITC/propidium iodide staining-based flow cytometry (reference value: 80 to 91.6%); format: functional; settings: MCF7, 24 h, read-out: Activity
MCF7 [16] = experiment: Cell cycle arrest in human MCF7 cells assessed as accumulation at G2/M phase at 4 uM after 24 hrs by propidium iodide staining-based flow cytometry (reference value: 3.73 to 10.75%); format: functional
MCF7 [17] = experiment: Cell cycle arrest in human MCF7 cells assessed as accumulation at G0/G1 phase at 2 uM after 24 hrs by propidium iodide staining-based flow cytometry (reference value: 64.68 to 80.32%); format: functional
MCF7 [18] = experiment: Cell cycle arrest in human MCF7 cells assessed as accumulation at G2/M phase at 8 uM after 24 hrs by propidium iodide staining-based flow cytometry (reference value: 3.73 to 10.75%); format: functional
MCF7 [19] = experiment: Induction of apoptosis in human MCF7 cells assessed as early apoptotic cells at 8 uM after 24 hrs by Annexin V-FITC/propidium iodide staining-based flow cytometry (reference value: 2.45 to 6.92%); format: functional
MCF7 [20] = experiment: Cell cycle arrest in human MCF7 cells assessed as accumulation at S phase at 2 uM after 24 hrs by propidium iodide staining-based flow cytometry (reference value: 15.95 to 25.74%); format: functional
MCF7 [21] = experiment: Induction of apoptosis in human MCF7 cells assessed as viable cells at 4 uM after 24 hrs by Annexin V-FITC/propidium iodide staining-based flow cytometry (reference value: 80 to 91.6%); format: functional; settings: MCF7, 24 h, read-out: Activity
MCF7 [22] = experiment: Induction of apoptosis in human MCF7 cells assessed as necrotic cells at 1 uM after 24 hrs by Annexin V-FITC/propidium iodide staining-based flow cytometry (reference value: 0.021 to 3.8%); format: functional
MCF7 [23] = experiment: Cell cycle arrest in human MCF7 cells assessed as accumulation at G2/M phase at 2 uM after 24 hrs by propidium iodide staining-based flow cytometry (reference value: 3.73 to 10.75%); format: functional
MCF7 [24] = experiment: Induction of apoptosis in human MCF7 cells assessed as late apoptotic cells at 8 uM after 24 hrs by Annexin V-FITC/propidium iodide staining-based flow cytometry (reference value: 5.92 to 9.33%); format: functional
MCF7 [25] = experiment: Cell cycle arrest in human MCF7 cells assessed as accumulation at G0/G1 phase at 4 uM after 24 hrs by propidium iodide staining-based flow cytometry (reference value: 64.68 to 80.32%); format: functional
MCF7 [26] = experiment: Induction of apoptosis in human MCF7 cells assessed as necrotic cells at 8 uM after 24 hrs by Annexin V-FITC/propidium iodide staining-based flow cytometry (reference value: 0.021 to 3.8%); format: functional
MCF7 [27] = experiment: Cell cycle arrest in human MCF7 cells assessed as accumulation at G0/G1 phase at 8 uM after 24 hrs by propidium iodide staining-based flow cytometry (reference value: 64.68 to 80.32%); format: functional

## COc1cc(C2c3cc4c(cc3[C@H](OC(=O)C(Cc3ccccc3)N3C(=O)C5CCCCC5C3=O)[C@H]3COC(=O)[C@H]23)OCO4)cc(OC)c1OC (stereo not given in full)
HeLa
  IC50: 2.22 µM
[1]
  IC50: 61.5 µM
MCF7 [2]
  IC50: 1.17 µM
A549
  IC50: 1.72 µM

## O=C1OC(=O)C2C3CCC(O3)C12 (stereo not given)
MCF7 [3]
  Activity: 47.21%
MCF7 [4]
  Activity: 22%
MCF7 [5]
  Activity: 5.68%
MCF7 [6]
  Activity: 8.3%
MCF7 [7]
  Activity: 45.68%
HeLa
  IC50: 9.03 µM
MCF7 [8]
  Activity: 11.6%
MCF7 [9]
  Activity: 6.04%
MCF7 [10]
  viability at 8 µM: 33.5%
MCF7 [11]
  Activity: 4.21%
MCF7 [12]
  Activity: 14.5%
MCF7 [13]
  Activity: 20.8%
MCF7 [14]
  viability at 2 µM: 69%
MCF7 [15]
  viability at 1 µM: 74%
MCF7 [16]
  Activity: 16.7%
MCF7 [17]
  Activity: 41.61%
MCF7 [18]
  Activity: 22.55%
MCF7 [19]
  Activity: 11%
MCF7 [20]
  Activity: 42.95%
MCF7 [21]
  viability at 4 µM: 58.1%
MCF7 [22]
  Activity: 5.89%
MCF7 [23]
  Activity: 15.64%
[1]
  IC50: 9.81 µM
MCF7 [2]
  IC50: 12.1 µM
MCF7 [24]
  Activity: 41.3%
MCF7 [25]
  Activity: 36.09%
MCF7 [26]
  Activity: 14.2%
MCF7 [27]
  Activity: 31.77%
A549
  IC50: 15.7 µM

## COc1cc(C2c3cc4c(cc3[C@H](OC(=O)C(C)N3C(=O)C5CCCCC5C3=O)[C@H]3COC(=O)[C@H]23)OCO4)cc(OC)c1OC (stereo not given in full)
HeLa
  IC50: 2.01 µM
[1]
  IC50: 90.7 µM
MCF7 [2]
  IC50: 1.87 µM
A549
  IC50: 2.34 µM

## COc1cc(C2c3cc4c(cc3[C@H](OC(=O)C(C)N3C(=O)C5C6CCC(O6)C5C3=O)[C@H]3COC(=O)[C@H]23)OCO4)cc(OC)c1OC (stereo not given in full)
HeLa
  IC50: 1.86 µM
[1]
  IC50: 53.2 µM
MCF7 [2]
  IC50: 1.74 µM
A549
  IC50: 1.91 µM

## COc1cc([C@@H]2c3cc4c(cc3[C@H](O)[C@H]3COC(=O)[C@H]23)OCO4)cc(OC)c1OC [PODOFILOX]
MCF7 [3]
  Activity: 19.36%
MCF7 [4]
  Activity: 3.57%
MCF7 [5]
  Activity: 2.33%
MCF7 [6]
  Activity: 3.35%
MCF7 [7]
  Activity: 57.7%
HeLa
  IC50: 1.45 µM
MCF7 [8]
  Activity: 0.032%
MCF7 [9]
  Activity: 2.95%
MCF7 [10]
  viability at 8 µM: 91.8%
MCF7 [11]
  Activity: 0.021%
MCF7 [12]
  Activity: 4.34%
MCF7 [13]
  Activity: 6.26%
MCF7 [14]
  viability at 2 µM: 90.8%
MCF7 [15]
  viability at 1 µM: 93.3%
MCF7 [16]
  Activity: 12.77%
MCF7 [17]
  Activity: 34.48%
MCF7 [18]
  Activity: 15.2%
MCF7 [19]
  Activity: 3.24%
MCF7 [20]
  Activity: 53.55%
MCF7 [21]
  viability at 4 µM: 93.1%
MCF7 [22]
  Activity: 0.037%
MCF7 [23]
  Activity: 11.97%
[1]
  IC50: 1.54 µM
MCF7 [2]
  IC50: 1.11 µM
MCF7 [24]
  Activity: 4.97%
MCF7 [25]
  Activity: 67.87%
MCF7 [26]
  Activity: 0.042%
MCF7 [27]
  Activity: 27.1%
A549
  IC50: 1.36 µM

## COc1cc(C2c3cc4c(cc3[C@H](OC(=O)[C@@H](Cc3ccccc3)N3C(=O)C5C6CCC(O6)C5C3=O)[C@H]3COC(=O)[C@H]23)OCO4)cc(OC)c1OC (stereo not given in full)
HeLa
  IC50: 3.09 µM
[1]
  IC50: 67.7 µM
MCF7 [2]
  IC50: 2.75 µM
A549
  IC50: 4.32 µM

## COc1cc(C2c3cc4c(cc3[C@H](OC(=O)[C@H](C)N3C(=O)c5ccccc5C3=O)[C@H]3COC(=O)[C@H]23)OCO4)cc(OC)c1OC (stereo not given in full)
HeLa
  IC50: 19 µM
[1]
  IC50: 88.6 µM
MCF7 [2]
  IC50: 18.3 µM
A549
  IC50: 5.89 µM

## COc1cc(C2c3cc4c(cc3[C@H](OC(=O)[C@H](Cc3ccccc3)N3C(=O)C5CCCCC5C3=O)[C@H]3COC(=O)[C@H]23)OCO4)cc(OC)c1OC (stereo not given in full)
HeLa
  IC50: 8.28 µM
[1]
  IC50: 42.6 µM
MCF7 [2]
  IC50: 8.24 µM
A549
  IC50: 4.92 µM

## COc1cc(C2c3cc4c(cc3[C@H](OC(=O)[C@@H](C)N3C(=O)C5CCCCC5C3=O)[C@H]3COC(=O)[C@H]23)OCO4)cc(OC)c1OC (stereo not given in full)
HeLa
  IC50: 2.15 µM
[1]
  IC50: 54.5 µM
MCF7 [2]
  IC50: 2.51 µM
A549
  IC50: 2.11 µM

## COc1cc(C2c3cc4c(cc3[C@H](OC(=O)C(C)N3C(=O)c5ccccc5C3=O)[C@H]3COC(=O)[C@H]23)OCO4)cc(OC)c1OC (stereo not given in full)
HeLa
  IC50: 17.2 µM
[1]
  IC50: 51.3 µM
MCF7 [2]
  IC50: 16.8 µM
A549
  IC50: 5.37 µM
